Measurements reported in EP1508617B1, “Method for stabilizing an alanine aminotransferase and the corresponding compositions” (SYSMEX CORPORATION, priority 1998, dated 1999).
Where two headings read alike, the source gives them in different places.

Molecular target: T1, ALT (Homo sapiens, UniProt P24298)
T1 construct: purchased ASAHI CHEMICAL INDUSTRIES CO., LTD; T-71
T1 sequence (P24298 1-496): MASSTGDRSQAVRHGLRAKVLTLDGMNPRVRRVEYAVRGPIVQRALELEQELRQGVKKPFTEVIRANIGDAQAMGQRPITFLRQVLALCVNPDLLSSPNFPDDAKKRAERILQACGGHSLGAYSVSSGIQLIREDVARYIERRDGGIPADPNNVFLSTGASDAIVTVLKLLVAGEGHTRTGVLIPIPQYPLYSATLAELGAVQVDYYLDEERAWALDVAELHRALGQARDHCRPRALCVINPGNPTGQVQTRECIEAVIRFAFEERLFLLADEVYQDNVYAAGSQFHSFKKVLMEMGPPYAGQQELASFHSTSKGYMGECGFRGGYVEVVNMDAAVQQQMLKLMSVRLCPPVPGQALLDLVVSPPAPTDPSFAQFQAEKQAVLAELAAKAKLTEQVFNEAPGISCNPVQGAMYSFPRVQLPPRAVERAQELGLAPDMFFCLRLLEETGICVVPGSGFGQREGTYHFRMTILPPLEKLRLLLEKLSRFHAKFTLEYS
Experiment: Stabilization effect of amino acids on ALT in control substance (residual activity after storage)
Format: biochemical
Details: for activity at 10000 µM: 96 h; for remaining activity at 1000 µM: tyrosine 1 mmol/L; for remaining activity at 5000 µM: valine 5 mmol/L; for remaining activity at 20000 µM: valine 20 mmol/L; for remaining activity at 50000 µM: valine 50 mmol/L; for remaining activity at 100000 µM: valine 100 mmol/L
Experimental: Using a human serum base and a BSA base as a medium, control substances were prepared respectively by adding, as a stabilizer, no amino acid, valine (10 mmol/L) as amino acid, proline (10 mmol/L) or other amino acid (10 mmol/L, provided that 1 mmol/L in case of tyrosine) to the respective mediums and then adding, as an enzyme, ALT (about 100 U/L).
The respective control substances thus obtained were stored at 45°C for four days and the residual activity of ALT contained in the respective control substances was measured.
CO., LTD. (manufacturing No. T-71). Furthermore, the human serum base used herein is a human serum base prepared by previously subjecting human serum to a heat treatment at 56°C for four hours thereby to devitalize an endogenous enzyme, followed by sterilization by filtration using a membrane filter of 0.2 µm in a pore diameter. The BSA base used herein is BES buffer (20 mmol/L) containing 3W/V% BSA.
With regard to the residual activity of ALT, the residual activity of ALT was measured by using an ALT reagent L "KOKUSAI" manufactured by INTERNATIONAL REAGENTS CORPORATION.
Valine and r-ALT were added to a human serum base and a BSA base in the concentration of about 100 U/L and, after storage at 45°C for four days, the residual activity was measured.

[1] = BSA base, amino acid 10 mmol/L, r-ALT about 100 U/L, stored at 45°C for four days (Example 1), read-out: Residual activity (%) of ALT
[2] = Human serum base, amino acid 10 mmol/L, r-ALT about 100 U/L, stored at 45°C for four days (Example 1), read-out: Residual activity (%) of ALT
[3] = read-out: Residual activity (%) of ALT, BSA base, amino acid 10 mmol/L, r-ALT about 100 U/L, stored at 45°C for four days (Example 1)
[4] = read-out: Residual activity (%) of ALT, Human serum base, amino acid 10 mmol/L, r-ALT about 100 U/L, stored at 45°C for four days (Example 1)
[5] = BSA base, valine 0.5 mmol/L, 45°C for four days (Example 2)
[6] = BSA base, 45°C for four days (Example 2)
[7] = Human serum base, 45°C for four days (Example 2)

SMILES	activity at 10000 µM [1] [%]	activity at 10000 µM [2] [%]	other results
C[C@H](N)C(=O)O [Alanine]	28	15	
N=C(N)NCCC[C@H](N)C(=O)O [Arginine]			activity at 10000 µM [3]: 30%; activity at 10000 µM [4]: 18%
NC(=O)C[C@H](N)C(=O)O [Asparagine]	25	14	
N[C@@H](CC(=O)O)C(=O)O [Aspartic acid]			remaining activity at 10000 µM [1]: 23%; remaining activity at 10000 µM [2]: 13%
N[C@@H](CS)C(=O)O [Cysteine]	24	14	
N[C@@H](CCC(=O)O)C(=O)O [Glutamic acid]			remaining activity at 10000 µM [3]: 28%; remaining activity at 10000 µM [4]: 15%
NC(=O)CC[C@H](N)C(=O)O [Glutamine]	15	17	
NCC(=O)O [Glycine]	30	19	
N[C@@H](Cc1c[nH]cn1)C(=O)O [Histidine]	28	15	
CC[C@H](C)[C@H](N)C(=O)O [Isoleucine]	28	18	
CC(C)C[C@H](N)C(=O)O [Leucine]	28	20	
NCCCC[C@H](N)C(=O)O [Lysine]	31	20	
CSCC[C@H](N)C(=O)O [Methionine]	31	20	
N[C@@H](CO)C(=O)O [Serine]	32	19	
C[C@@H](O)[C@H](N)C(=O)O [Threonine]	31	18	
N[C@@H](Cc1c[nH]c2ccccc12)C(=O)O [Tryptophane]	30	18	
N[C@@H](Cc1ccc(O)cc1)C(=O)O [Tyrosine]			remaining activity at 1000 µM (BSA base, r-ALT about 100 U/L, stored at 45°C for four days (Example 1)): 31%; remaining activity at 1000 µM (Human serum base, r-ALT about 100 U/L, stored at 45°C for four days (Example 1)): 18%
CC(C)[C@H](N)C(=O)O [Valine]	62	55	Residual activity (%) of ALT [5]: 36%; remaining activity at 500 µM [5]: 38%; remaining activity at 5000 µM [6]: 46%; remaining activity at 10000 µM (BSA base, valine 10 mmol/L, 45°C for four days (Example 2), read-out: Residual activity (%) of ALT): 62%; remaining activity at 20000 µM [6]: 65%; remaining activity at 50000 µM [6]: 64%; remaining activity at 100000 µM [6]: 65%; remaining activity at 500 µM (Human serum base, valine 0.5 mmol/L, 45°C for four days (Example 2)): 28%; remaining activity at 5000 µM [7]: 33%; remaining activity at 10000 µM (Human serum base, valine 10 mmol/L, 45°C for four days (Example 2), read-out: Residual activity (%) of ALT): 55%; remaining activity at 20000 µM [7]: 56%; remaining activity at 50000 µM [7]: 56%; remaining activity at 100000 µM [7]: 55%
N[C@@H](Cc1ccccc1)C(=O)O [phenylalanine]	31	19	
O=C(O)[C@@H]1CCCN1 [proline]	61	35	
